Patent US20050107257A1, “Derivatives of (1-benzyl-piperidine-4-yl)-diphenyl-methanol and their use as pesticide” (priority 2002, published 2005)

Legend:
[1] = test system: Heliothis virescens; experiment: Action against Heliothis virescens caterpillars (sprayed soybean plants); format: in vivo; conditions: 144 h, 400 ppm spray mixture, first-stage caterpillars, evaluation 6 days later, read-out: % activity (percentage reduction in population and percentage reduction in feeding damage)
Protocol: Young soybean plants are sprayed with an aqueous emulsion spray mixture comprising 400 ppm of test compound. After the spray-coating has dried, the soybean plants are populated with 10 caterpillars of Heliothis virescens in the first stage and placed in a plastics container. Evaluation is made 6 days later. The percentage reduction in population and the percentage reduction in feeding damage (% activity) are determined by comparing the number of dead caterpillars and the feeding damage on the treated plants with that on untreated plants.

[2] = test system: Plutella xylostella; experiment: Action against Plutella xylostella caterpillars (sprayed cabbage plants); format: in vivo; conditions: 72 h, 400 ppm spray mixture, third-stage caterpillars, evaluation 3 days later, read-out: % activity (percentage reduction in population and percentage reduction in feeding damage)
Protocol: (§1) Young cabbage plants are sprayed with an aqueous emulsion spray mixture comprising 400 ppm of test compound. After the spray-coating has dried, the cabbage plants are populated with 10 caterpillars of Plutella xylostella in the third stage and placed in a plastics container. Evaluation is made 3 days later. The percentage reduction in population and the percentage reduction in feeding damage (% activity) are determined by comparing the number of dead caterpillars and the feeding damage on the treated plants with that on the untreated plants.

[3] = test system: Diabrotica balteata; experiment: Action against Diabrotica balteata larvae (sprayed maize seedlings); format: in vivo; conditions: 144 h, 400 ppm spray mixture, second-stage larvae, evaluation 6 days later, read-out: % activity (percentage reduction in population)
Protocol: Maize seedlings are sprayed with an aqueous emulsion spray mixture comprising 400 ppm of the test compound. After the spray-coating has dried, the maize seedlings are populated with 10 Diabrotica balteata larvae in the second stage and placed in a plastics container. Evaluation is made 6 days later. The percentage reduction in population (% activity) is determined by comparing the number of dead larvae on the treated plants with that on untreated plants.

[4] = test system: Spodoptera littoralis; experiment: Action against Spodoptera littoralis caterpillars (sprayed soybean plants); format: in vivo; conditions: 72 h, 400 ppm spray mixture, third-stage caterpillars, evaluation 3 days later, read-out: % activity (percentage reduction in population and percentage reduction in feeding damage)
Protocol: as §1, with “Young soybean plants are” for “Young cabbage plants are”, “dried, the soybean plants are” for “dried, the cabbage plants are”, “caterpillars of Spodoptera littoralis in the” for “caterpillars of Plutella xylostella in the”, “that on untreated plants.” for “that on the untreated plants.”

Compound | melting point [°C] | inhibition at 400 ppm [1] [%] | inhibition at 400 ppm [2] [%] | inhibition at 400 ppm [3] [%] | inhibition at 400 ppm [4] [%]
CCC1=C(C(O)(c2ccc(C(F)(F)F)cc2)c2ccc(C(F)(F)F)cc2)CC[N+]([O-])(Cc2ccc(NC(=O)OC(C)C)cc2)C1 (centres unmarked) [Compound 1.11] | 207 to 211 |  |  |  | 
CC(C)OC(=O)Nc1ccc(C[N+]2([O-])CC[C@@H](C(O)(c3ccc(C(F)(F)F)cc3)c3ccc(C(F)(F)F)cc3)[C@H](C)C2)cc1 (some centres unmarked) [Compound 2.5] | 188 to 190 | > 80 | > 80 | > 80 | > 80
CC(C)OC(=O)Nc1ccc(CN2CC[C@@H](C(O)(c3ccc(C(F)(F)F)cc3)c3ccc(C(F)(F)F)cc3)[C@H](C)C2)cc1 [Compound 2.6] | 66 to 67 | > 80 | > 80 | > 80 | > 80
